Source: patent publication US10112950B2, “Substituted imidazo[1,2-a]pyrazines as LSD1 inhibitors” (Incyte Corporation, priority 2014, dated 2018)

The compounds below were run against LSD-1 enzyme (Homo sapiens (Human), UniProt O60341) (assay: LANCE LSD1/KDM1A demethylase assay (LSD1 histone demethylase biochemical assay)). Conditions: 1 nM LSD-1 enzyme, 1 hour preincubation at 25° C., 0.4 μM Biotin-labeled Histone H3 peptide substrate.

Question: With `Cc1nc2cc(-c3c(-c4ccc(C#N)cc4)nc(N4CCC(N(C)C)CC4)c4nccn34)ccc2n1C` [Example 115, 4-[8-[4-(dimethylamino)piperidin-1-yl]-5-(1,2-dimethyl-1H-benzimidazol-5-yl)imidazo[1,2-a]pyrazin-6-yl]benzonitrile] as the compound, how does the IC50 read?
Answer: The IC50 was no more than 0.05 µM.

Question: How did the IC50 turn out when `COc1ncc(-c2c(-c3ccc(C#N)cc3)nc(N3CCC(N(C)C)CC3)c3nccn23)cc1O` [Example 118, 4-[8-[4-(dimethylamino)piperidin-1-yl]-5-(5-hydroxy-6-methoxypyridin-3-yl)imidazo[1,2-a]pyrazin-6-yl]benzonitrile] was run?
Answer: The IC50 was no more than 0.05 µM.

Question: How did the IC50 turn out when `COc1ncc(-c2c(-c3ccc(C#N)cc3)nc(OC[C@@H]3CCCN(C)C3)c3nccn23)cc1O` [Example 119, 4-(5-(5-hydroxy-6-methoxypyridin-3-yl)-8-{[(3R)-1-methylpiperidin-3-yl]methoxy}imidazo[1,2-a]pyrazin-6-yl)benzonitrile] was run?
Answer: The IC50 was no more than 0.05 µM.
